Laboratory results published in patent US11040979B2, “Substituted pyrrolo[1,2-b]pyridazines for treating disorders related to KIT and PDGFR” (Blueprint Medicines Corporation, priority 2017, dated 2021).

Assays:
Experiment in all cases: Kinase profiling with recombinant enzyme, 33P-ATP filter-binding method
Format in all cases: biochemical
wild-type KIT = wild-type KIT (Homo sapiens (Human), UniProt P10721); conditions: c-KIT WT, poly[Glu:Tyr] (4:1), ATP (Km) 100 uM; read-out: INH-KITWT IC50
Procedure: (§1) KIT, KIT mutant, and PDGFRα mutant kinase profiling was performed with recombinant enzymes including wild-type KIT, KIT V560G, KIT V559D/T670I, V559D/V654A, and PDGFRα D842V. Kinase/substrate pairs were prepared in reaction buffer (20 mM Hepes (pH 7.5), 10 mM MgCl2, 1 mM EGTA, 0.02% Brij35, 0.02 mg/ml BSA, 0.1 mM Na3VO4, 2 mM DTT, 1% DMSO). Compounds were dissolved at 10 mM in 100% DMSO, serial diluted and added to the kinase/substrate mix in final concentrations from 10 uM to 0.5 pM. Compounds were incubated with the recombinant enzymes and substrates at room temperature for 20 minutes with their respective Km for ATP. ^33P-ATP (10 mCi/mL) was added to initiate the reaction. Incubation for two hours at room temperature was followed by spotting onto P81 ion exchange paper and detection of kinase activity by a filter-binding method.
(§2) Conditions for Specific Enzyme Assays:
(§3) Data was normalized to 0% and 100% inhibition controls and the IC50 calculated using a 4-parameter curve fit.

KIT V559D/T670I = KIT V559D/T670I (Homo sapiens (Human), UniProt P10721, T670I/V559D); conditions: c-KIT V559D/T670I, poly[Glu:Tyr] (4:1), ATP (Km) 5 uM; read-out: INH-KITV559D/T670I (exon 13) IC50
Procedure: as §1, §2, §3

KIT V560G = KIT V560G (Homo sapiens (Human), UniProt P10721, V560G); conditions: c-KIT V560G, poly[Glu:Tyr] (4:1), ATP (Km) 20 uM; read-out: INH-KITV560G (exon 11) IC50
Procedure: as §1, §2, §3

KIT V559D/V654A = KIT V559D/V654A (Homo sapiens (Human), UniProt P10721, V559D/V654A); conditions: c-KIT V559D/V654A, poly[Glu:Tyr] (4:1), ATP (Km) 20 uM; read-out: INH-KITV559D/V654A (exon 13) IC50
Procedure: as §1, §2, §3

PDGFRα D842V = PDGFRα D842V (Homo sapiens (Human), UniProt P16234, D842V); conditions: poly[Glu:Tyr] (4:1), ATP (Km) 1 uM, read-out: INH-PDGFRα D842V (exon 18) IC50
Procedure: as §1, §2, §3

Sequence of KIT V559D/T670I (P10721 26-976 V559D/T670I): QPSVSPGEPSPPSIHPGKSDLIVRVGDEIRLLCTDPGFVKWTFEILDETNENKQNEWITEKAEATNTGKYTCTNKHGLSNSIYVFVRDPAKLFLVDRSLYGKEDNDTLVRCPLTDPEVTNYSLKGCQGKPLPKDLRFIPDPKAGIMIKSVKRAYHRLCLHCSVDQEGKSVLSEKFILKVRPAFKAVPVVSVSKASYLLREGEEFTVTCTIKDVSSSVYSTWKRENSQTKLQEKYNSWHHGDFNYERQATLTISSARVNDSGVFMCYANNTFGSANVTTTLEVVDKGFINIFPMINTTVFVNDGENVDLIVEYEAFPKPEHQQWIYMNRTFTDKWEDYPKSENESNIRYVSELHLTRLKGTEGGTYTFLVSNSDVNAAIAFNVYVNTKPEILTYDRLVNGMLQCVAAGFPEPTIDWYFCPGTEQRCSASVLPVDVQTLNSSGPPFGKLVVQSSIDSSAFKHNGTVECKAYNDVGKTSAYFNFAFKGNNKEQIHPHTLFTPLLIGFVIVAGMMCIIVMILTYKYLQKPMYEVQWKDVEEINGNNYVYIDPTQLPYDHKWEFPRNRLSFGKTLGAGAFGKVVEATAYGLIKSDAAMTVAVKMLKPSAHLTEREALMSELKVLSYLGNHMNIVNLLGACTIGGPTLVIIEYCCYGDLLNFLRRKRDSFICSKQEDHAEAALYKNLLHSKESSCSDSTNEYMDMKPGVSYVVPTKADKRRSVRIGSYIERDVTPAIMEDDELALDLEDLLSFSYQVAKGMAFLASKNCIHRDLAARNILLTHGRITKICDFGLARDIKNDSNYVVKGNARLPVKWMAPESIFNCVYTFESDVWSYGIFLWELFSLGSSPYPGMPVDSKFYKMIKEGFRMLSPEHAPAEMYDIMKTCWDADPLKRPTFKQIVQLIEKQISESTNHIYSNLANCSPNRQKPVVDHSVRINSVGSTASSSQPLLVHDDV
Sequence of wild-type KIT (P10721 26-976): as the sequence (P10721 26-976 V559D/T670I) above, with D534V, I645T counted along it
Sequence of KIT V559D/V654A (P10721 26-976 V559D/V654A): as the sequence (P10721 26-976 V559D/T670I) above, with V629A, I645T counted along it
Sequence of PDGFRα D842V (P16234 24-1089 D842V): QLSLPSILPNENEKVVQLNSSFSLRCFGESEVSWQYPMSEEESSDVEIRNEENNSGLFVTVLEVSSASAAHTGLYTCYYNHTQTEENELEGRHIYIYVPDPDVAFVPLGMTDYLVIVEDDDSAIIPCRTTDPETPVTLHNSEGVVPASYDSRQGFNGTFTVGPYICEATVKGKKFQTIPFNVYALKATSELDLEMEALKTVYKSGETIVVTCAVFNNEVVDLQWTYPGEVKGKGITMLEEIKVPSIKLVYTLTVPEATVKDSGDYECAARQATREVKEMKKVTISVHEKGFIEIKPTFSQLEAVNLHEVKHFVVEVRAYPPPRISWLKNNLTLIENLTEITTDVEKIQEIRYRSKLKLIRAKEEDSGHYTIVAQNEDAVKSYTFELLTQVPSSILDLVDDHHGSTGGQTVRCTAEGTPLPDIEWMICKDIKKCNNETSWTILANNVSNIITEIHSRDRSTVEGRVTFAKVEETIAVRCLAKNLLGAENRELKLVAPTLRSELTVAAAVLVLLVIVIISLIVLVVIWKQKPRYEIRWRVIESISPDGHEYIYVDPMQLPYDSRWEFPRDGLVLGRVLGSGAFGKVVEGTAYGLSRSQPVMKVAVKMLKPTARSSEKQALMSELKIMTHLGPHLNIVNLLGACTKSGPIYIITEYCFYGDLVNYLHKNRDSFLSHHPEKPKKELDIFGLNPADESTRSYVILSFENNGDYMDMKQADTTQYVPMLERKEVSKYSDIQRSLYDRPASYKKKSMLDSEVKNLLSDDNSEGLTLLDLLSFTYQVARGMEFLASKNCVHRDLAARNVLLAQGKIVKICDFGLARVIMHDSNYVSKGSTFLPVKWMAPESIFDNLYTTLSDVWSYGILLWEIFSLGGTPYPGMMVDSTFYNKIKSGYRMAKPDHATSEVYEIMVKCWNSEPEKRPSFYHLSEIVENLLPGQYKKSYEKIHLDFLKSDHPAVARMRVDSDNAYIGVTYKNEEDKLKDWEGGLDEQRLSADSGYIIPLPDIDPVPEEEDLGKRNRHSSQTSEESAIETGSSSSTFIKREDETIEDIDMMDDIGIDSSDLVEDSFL
Sequence of KIT V560G (P10721 26-976 V560G): as the sequence (P10721 26-976 V559D/T670I) above, with D534V, V535G, I645T counted along it

| SMILES | IC50 (wild-type KIT) [µM] | IC50 (KIT V559D/T670I) [µM] | IC50 (KIT V560G) [µM] | IC50 (KIT V559D/V654A) [µM] | IC50 (PDGFRα D842V) [µM] |
| --- | --- | --- | --- | --- | --- |
| Cn1cc(-c2cc3c(N4CCN(c5ncc([C@@](C)(N)c6ccc(F)cc6)cn5)CC4)ccnn3c2)cn1 [Compound 1, (S)-1-(4-fluorophenyl)-1-(2-(4-(6-(1-methyl-1H-pyrazol-4-yl)pyrrolo[1,2-b]pyridazin-4-yl)piperazin-1-yl)pyrimidin-5-yl)ethanamine] | > 0.1 | 0.00101 to 0.01 | 0.00101 to 0.01 | 0.00101 to 0.01 | < 0.001 |
| Cn1cc(-c2cc3c(N4CCN(c5ncc([C@@](C)(N)c6ccc(F)cc6)cn5)CC4)c(F)cnn3c2)cn1 [Compound 2, (S)-1-(2-(4-(3-fluoro-6-(1-methyl-11H-pyrazol-4-yl)pyrrolo[1,2-b]pyridazin-4-yl)piperazin-1-yl)pyrimidin-5-yl)-1-(4-fluorophenyl)ethanamine] | > 0.1 | 0.00101 to 0.01 | 0.01 to 0.1 | 0.01 to 0.1 | < 0.001 |
| Cn1cc(-c2cc3c(N4CCN(c5ncc([C@@](C)(N)c6ccc(F)cc6)cn5)CC4)c(Cl)cnn3c2)cn1 [Compound 3, (S)-1-(2-(4-(3-chloro-6-(1-methyl-1H-pyrazol-4-yl)pyrrolo[1,2-b]pyridazin-4-yl)piperazin-1-yl)pyrimidin-5-yl)-1-(4-fluorophenyl)ethanamine] | > 0.1 | 0.00101 to 0.01 | 0.01 to 0.1 | > 0.1 | < 0.001 |
| Cn1cc(-c2cc3c(N4CCN(c5ncc([C@@](C)(N)c6ccc(F)cc6)cn5)CC4)c(C#N)cnn3c2)cn1 [Compound 4, (S)-4-(4-(5-(1-amino-1-(4-fluorophenyl)ethyl)pyrimidin-2-yl)piperazin-1-yl)-6-(1-methyl-1H-pyrazol-4-yl)pyrrolo[1,2-b]pyridazine-3-carbonitrile] | > 0.1 | 0.00101 to 0.01 | 0.00101 to 0.01 | 0.01 to 0.1 | < 0.001 |
